For one assay, the target named is T1, NHE3 (Homo sapiens, UniProt P48764).
T1 construct: expressed in transfected cells
T1 sequence (P48764 26-834): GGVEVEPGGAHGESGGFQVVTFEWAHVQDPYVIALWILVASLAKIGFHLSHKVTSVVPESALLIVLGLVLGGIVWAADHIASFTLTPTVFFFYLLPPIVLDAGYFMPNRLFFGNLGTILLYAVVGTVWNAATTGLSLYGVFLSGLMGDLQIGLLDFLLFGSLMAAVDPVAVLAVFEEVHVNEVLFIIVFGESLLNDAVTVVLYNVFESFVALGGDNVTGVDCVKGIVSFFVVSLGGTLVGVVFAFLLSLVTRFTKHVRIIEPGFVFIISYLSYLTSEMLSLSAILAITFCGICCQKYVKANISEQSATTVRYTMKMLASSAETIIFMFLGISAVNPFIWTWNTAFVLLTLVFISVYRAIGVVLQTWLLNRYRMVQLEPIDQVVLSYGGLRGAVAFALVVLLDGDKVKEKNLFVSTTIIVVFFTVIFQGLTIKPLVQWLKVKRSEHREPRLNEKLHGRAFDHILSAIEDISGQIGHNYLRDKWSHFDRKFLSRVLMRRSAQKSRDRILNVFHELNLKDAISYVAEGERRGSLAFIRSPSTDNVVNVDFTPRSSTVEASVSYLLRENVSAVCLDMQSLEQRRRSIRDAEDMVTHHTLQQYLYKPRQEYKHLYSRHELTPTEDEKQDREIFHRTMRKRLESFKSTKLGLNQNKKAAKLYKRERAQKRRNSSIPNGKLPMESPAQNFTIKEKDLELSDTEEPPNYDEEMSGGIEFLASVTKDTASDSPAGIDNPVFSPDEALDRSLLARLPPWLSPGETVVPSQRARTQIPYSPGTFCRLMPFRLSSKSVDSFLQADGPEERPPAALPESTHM
T1 sequence (Q99653 2-195 partner limits assumed): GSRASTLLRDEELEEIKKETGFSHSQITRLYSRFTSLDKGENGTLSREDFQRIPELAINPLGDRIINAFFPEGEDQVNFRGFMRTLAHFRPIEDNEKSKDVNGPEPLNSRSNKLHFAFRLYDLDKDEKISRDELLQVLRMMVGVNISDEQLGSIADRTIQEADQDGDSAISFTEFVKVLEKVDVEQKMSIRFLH
The assay is described as follows: Cell-based assay of NHE-3 activity (persistent inhibition), human. To be noted: human Persistence, 60 min incubation then washout. A digest of the protocol:
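PS120 fibroblasts expressing human NHE3 with NHERF2 exposed to 0-30 μM compound for 60 min at RT, then washed out; cells acid-loaded by NH4Cl prepulse with BCECF-AM and Na+-free buffer. Na+-driven pH recovery started 10 min post-washout; initial rate of BCECF ratio change (FLIPR) taken as activity.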

Assay [1] has as its system absorption of sodium from the intestinal lumen. The assay is described as follows: Inhibition of intestinal sodium absorption in mice. It is filed as in vivo. The note with it: CD-1 mice, 15 mg/kg oral gavage twice daily; for Fecal fluid content (Δ from vehicle): day 3, change from vehicle group mean; for response vs control in vivo at 15 mg/kg: Mus musculus, 72 h, day 3, normalized to dietary sodium intake. A digest of the protocol: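 Male ~8-week CD-1 mice on chow with added 0.4% inorganic phosphorous, in metabolic cages after 3-day acclimation and 24-hr baseline collection. Urine sodium by ion chromatography, dried fecal sodium by MP-AES; day-3 24-hour excretion normalized to dietary sodium intake and expressed as % of vehicle mean; diarrhea and fecal fluid also recorded.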

Setting [2] is: read-out: Fecal Na Excretion (% of vehicle).
The mark [3] stands for this setting: read-out: Urinary Na Excretion (% of vehicle).

Read-outs that look alike come from different tables or passages of the source. Some results are limits rather than exact numbers.

Take `N#Cc1cc(Cl)cc2c1C[C@H](N1CCNCC1)[C@H]2Oc1ccc(S(=O)(=O)NCCOCCOCCNC(=O)NCCCCNC(=O)NCCOCCOCCNS(=O)(=O)c2ccc(O[C@H]3c4cc(Cl)cc(C#N)c4C[C@@H]3N3CCNCC3)c(F)c2)cc1F` [Example 43, 3-[2-(2-[2-[(4-[[(1S,2S)-6-Chloro-4-cyano-2-(piperazin-1-yl)-2,3-dihydro-1H-inden-1-yl]oxy]-3-fluorobenzene)sulfonamido]ethoxy]ethoxy)ethyl]-1-[4-([[2-(2-[2-[(4-[[(1S,2S)-6-chloro-4-cyano-2-(piperazin-1-yl)-2,3-dihydro-1H-inden-1-yl]oxy]-3-fluorobenzene)sulfonamido]ethoxy]ethoxy)ethyl]carbamoyl]amino)butyl]urea; bis(trifluoroacetic acid)]: on NHE3, the “% inhibition” value is recorded as “C (>70%)” and the pIC50 result was “C (NHE3 pIC50 > 7)”. In assay [1], the “Fecal fluid content (Δ from vehicle)” value is recorded as “C (>10)”. Further, the response vs control in vivo at 15 mg/kg in assay [1] (setting [2]) was greater than 200%. Further, the response vs control in vivo at 15 mg/kg in assay [1] (setting [3]) was less than 50%.
The matching figures for `Cc1cc(S(=O)(=O)N2CC[C@@H](COCCOCCNC(=O)NCCCCNC(=O)NCCOCCOC[C@@H]3CCN(S(=O)(=O)c4ccc(O[C@H]5c6cc(Cl)cc(Cl)c6C[C@@H]5N(C)C)c(C)c4)C3)C2)ccc1O[C@H]1c2cc(Cl)cc(Cl)c2C[C@@H]1N(C)C` [Example 45, 3-[2-(2-[[(3R)-1-[(4-[[(1S,2S)-4,6-Dichloro-2-(dimethylamino)-2,3-dihydro-1H-inden-1-yl]oxy]-3-methylbenzene)sulfonyl]pyrrolidin-3-yl]methoxy]ethoxy)ethyl]-1-[4-([[2-(2[[(3R)-1-[(4-[[(1S,2S)-4,6-dichloro-2-(dimethylamino)-2,3-dihydro-1H-inden-1-yl]oxy]-3-methylbenzene)sulfonyl]pyrrolidin-3-yl]methoxy]ethoxy)ethyl]carbamoyl]amino)butyl]urea; bis(trifluoroacetic acid)]: “C (>70%)”, “C (NHE3 pIC50 > 7)”, “A (<5)”, less than 150% and greater than 70%.
The like results for `Cc1cc(S(=O)(=O)N2CC[C@@H](COc3ccnc(CNC(=O)NCCCCNC(=O)NCc4cc(OC[C@@H]5CCN(S(=O)(=O)c6ccc(O[C@H]7c8cc(Cl)cc(Cl)c8C[C@@H]7N(C)C)c(C)c6)C5)ccn4)c3)C2)ccc1O[C@H]1c2cc(Cl)cc(Cl)c2C[C@@H]1N(C)C` [Example 49, 3-[(4-[[(3R)-1-[(4-[[(1S,2S)-4,6-Dichloro-2-(dimethylamino)-2,3-dihydro-1H-inden-1-yl]oxy]-3-methylbenzene)sulfonyl]pyrrolidin-3-yl]methoxy]pyridin-2-yl)methyl]-1-[4-([[(4-[[(3R)-1-[(4-[[(1S,2S)-4,6-dichloro-2-(dimethylamino)-2,3-dihydro-1H-inden-1-yl]oxy]-3-methylbenzene)sulfonyl]pyrrolidin-3-yl]methoxy]pyridin-2-yl)methyl]carbamoyl]amino)butyl]urea] were, in that order, “C (>70%)”, “C (NHE3 pIC50 > 7)”, “A (<5)”, less than 150% and greater than 70%.
In the case of `Cc1cc(S(=O)(=O)N[C@H]2CCN(CCOCCNC(=O)NCCCCNC(=O)NCCOCCN3CC[C@H](NS(=O)(=O)c4ccc(O[C@H]5c6cc(Cl)cc(Cl)c6C[C@@H]5N(C)C)c(C)c4)C3)C2)ccc1O[C@H]1c2cc(Cl)cc(Cl)c2C[C@@H]1N(C)C` [Example 52, 3-(2-[2-[(3S)-3-[(4-[[(1S,2S)-4,6-Dichloro-2-(dimethylamino)-2,3-dihydro-1H-inden-1-yl]oxy]-3-methylbenzene)sulfonamido]pyrrolidin-1-yl]ethoxy]ethyl)-1-(4-[[(2-[2-[(3S)-3-[(4-[[(1S,2S)-4,6-dichloro-2-(dimethylamino)-2,3-dihydro-1H-inden-1-yl]oxy]-3-methylbenzene)sulfonamido]pyrrolidin-1-yl]ethoxy]ethyl)carbamoyl]amino]butyl)urea], on NHE3, the “% inhibition” value is on record as “C (>70%)”. Also, the pIC50 result against NHE3 was “C (NHE3 pIC50 > 7)”. In addition, in assay [1], the “Fecal fluid content (Δ from vehicle)” value is “B (5-10)”. For the same compound, the values for the response vs control in vivo at 15 mg/kg in assay [1] (setting [2]) and in assay [1] (setting [3]) were greater than 200% and 50 to 70%, respectively.
The like results for `Cc1cc(S(=O)(=O)N[C@@H]2CCN(CCOCCNC(=O)NCCCCNC(=O)NCCOCCN3CC[C@@H](NS(=O)(=O)c4ccc(O[C@H]5c6cc(Cl)cc(Cl)c6C[C@@H]5N(C)C)c(C)c4)C3)C2)ccc1O[C@H]1c2cc(Cl)cc(Cl)c2C[C@@H]1N(C)C` [Example 53, 3-(2-[2-[(3R)-3-[(4-[[(1S,2S)-4,6-Dichloro-2-(dimethylamino)-2,3-dihydro-1H-inden-1-yl]oxy]-3-methylbenzene)sulfonamido]pyrrolidin-1 yl]ethoxy]ethyl)-1-(4-[[(2-[2-[(3R)-3-[(4-[[(1S,2S)-4,6-dichloro-2-(dimethylamino)-2,3-dihydro-1H-inden-1-yl]oxy]-3-methylbenzene)sulfonamido]pyrrolidin-1-yl]ethoxy]ethyl)carbamoyl]amino]butyl)urea] were, in that order, “C (>70%)”, “C (NHE3 pIC50 > 7)”, “B (5-10)”, less than 150% and greater than 70%.
For `Cc1cc(S(=O)(=O)N[C@@H]2CCN(CCOCCNC(=O)NCCCCNC(=O)NCCOCCN3CC[C@@H](NS(=O)(=O)c4ccc(O[C@H]5c6cc(Cl)cc(C#N)c6C[C@@H]5N(C)C)c(C)c4)C3)C2)ccc1O[C@H]1c2cc(Cl)cc(C#N)c2C[C@@H]1N(C)C` [Example 55, 3-(2-[2-[(3R)-3-[(4-[[(1S,2S)-6-Chloro-4-cyano-2-(dimethylamino)-2,3-dihydro-1H-inden-1-yl]oxy]-3-methylbenzene)sulfonamido]pyrrolidin-1-yl]ethoxy]ethyl)-1-(4-[[(2-[2-[(3R)-3-[(4-[[(1S,2S)-6-chloro-4-cyano-2-(dimethylamino)-2,3-dihydro-1H-inden-1-yl]oxy]-3-methylbenzene)sulfonamido]pyrrolidin-1-yl]ethoxy]ethyl)carbamoyl]amino]butyl)urea], at NHE3, the “% inhibition” value is “C (>70%)”. Also, the “Fecal fluid content (Δ from vehicle)” value in assay [1] is reported as “B (5-10)”. Also, the response vs control in vivo at 15 mg/kg in assay [1] (setting [2]) is 150 to 200%; in assay [1] (setting [3]), greater than 70%.
As to `Cc1cc(O[C@H]2c3cc(Cl)cc(Cl)c3C[C@@H]2N(C)C)c(F)cc1S(=O)(=O)NCCOCCOCCNC(=O)NCCCCNC(=O)NCCOCCOCCNS(=O)(=O)c1cc(F)c(O[C@H]2c3cc(Cl)cc(Cl)c3C[C@@H]2N(C)C)cc1C` [Example 88, 3-[2-(2-[2-[(4-[[(1S,2S)-4,6-Dichloro-2-(dimethylamino)-2,3-dihydro-1H-inden-1-yl]oxy]-5-fluoro-2-methylbenzene)sulfonamido]ethoxy]ethoxy)ethyl]-1-[4-([[2-(2-[2-[(4-[[(1S,2S)-4,6-dichloro-2-(dimethylamino)-2,3-dihydro-1H-inden-1-yl]oxy]-5-fluoro-2-methylbenzene)sulfonamido]ethoxy]ethoxy)ethyl]carbamoyl]amino)butyl]urea], on NHE3, the “% inhibition” value is reported as “C (>70%)” and the pIC50 result is reported as “C (NHE3 pIC50 > 7)”. Moreover, in assay [1], the “Fecal fluid content (Δ from vehicle)” value is given as “B (5-10)”. Besides, the response vs control in vivo at 15 mg/kg in assay [1] (setting [2]) is 150 to 200%. In assay [1] (setting [3]), the response vs control in vivo at 15 mg/kg fell in the range of 50 to 70%.

For the origin of these results see patent US11242337B2, “Compounds useful for treating gastrointestinal tract disorders” (Ardelyx, Inc., priority 2017, dated 2022).
